Measurements: PubChem BioAssay (NCI)
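Interpolation was linear, between the two tested concentrations surrounding the appropriate level; five concentrations were tested over 48 hours in 96-well plates. Here, GI50 denotes the concentration required for 50% inhibition of growth. TGI: concentration producing complete growth inhibition.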

Experiments:
Assay in all cases: DTP human tumour cell line panel, 48 h
[1] = tested on: 786-0 renal
[2] = tested on: SN12C renal
[3] = tested on: SR leukemia
[4] = tested on: OVCAR-5 ovarian
[5] = tested on: HOP-62 NSCLC
[6] = tested on: HL-60(TB) leukemia
[7] = tested on: NCI/ADR-RES ovarian
[8] = tested on: RXF 393 renal
[9] = tested on: A549 NSCLC
[10] = tested on: UO-31 renal
[11] = tested on: HCT-15 colon
[12] = tested on: RPMI-8226 leukemia
[13] = tested on: SF-295 CNS
[14] = tested on: CCRF-CEM leukemia
[15] = tested on: IGROV1 ovarian
[16] = tested on: LOX IMVI melanoma
[17] = tested on: MDA-MB-231 breast
[18] = tested on: NCI-H522 lung
[19] = tested on: CAKI-1 renal
[20] = tested on: NCI-H460 lung
[21] = tested on: PC-3 prostate
[22] = tested on: MDA-MB-435
[23] = tested on: HT29 colon
[24] = tested on: NCI-H226 lung
[25] = tested on: M14 melanoma
[26] = tested on: COLO 205 colon
[27] = tested on: EKVX NSCLC
[28] = tested on: OVCAR-8 ovarian
[29] = tested on: MCF7 breast
[30] = tested on: KM12 colon
[31] = tested on: NCI-H23 lung
[32] = tested on: A498 renal
[33] = tested on: SK-OV-3 ovarian
[34] = tested on: K-562 leukemia
[35] = tested on: OVCAR-4 ovarian
[36] = tested on: SF-539 CNS
[37] = tested on: HS 578T breast
[38] = tested on: ACHN renal
[39] = tested on: DU-145 prostate
[40] = tested on: SNB-19 CNS
[41] = tested on: BT-549 breast
[42] = tested on: SW-620 colon
[43] = tested on: T-47D breast
[44] = tested on: TK-10 renal
[45] = tested on: HCT-116 colon
[46] = tested on: MALME-3M melanoma
[47] = tested on: UACC-257 melanoma
[48] = tested on: SK-MEL-28 melanoma
[49] = tested on: MOLT-4 leukemia
[50] = tested on: HCC-2998 colon
[51] = tested on: SNB-75 CNS
[52] = tested on: HOP-92 NSCLC
[53] = tested on: U251 CNS
[54] = tested on: UACC-62 melanoma
[55] = tested on: OVCAR-3 ovarian
[56] = tested on: SK-MEL-2 melanoma
[57] = tested on: SF-268 CNS
[58] = tested on: SK-MEL-5 melanoma

CCN(CC)c1ccc(/C=N/NC(=O)c2ccc(NS(C)(=O)=O)cc2)c(O)c1
GI50 [1]: 0.425 µM
TGI [1]: 4.2 µM
GI50 [2]: 0.768 µM
TGI [2]: 62.6 µM
GI50 [3]: 0.0954 µM
GI50 [4]: 2.47 µM
TGI [4]: > 100 µM
GI50 [5]: 0.267 µM
TGI [5]: 6.94 µM
GI50 [6]: 0.242 µM
GI50 [7]: 3.18 µM
TGI [7]: 98.3 µM
GI50 [8]: 0.788 µM
TGI [8]: 3.23 µM
GI50 [9]: 1.98 µM
TGI [9]: > 48.5 µM
GI50 [10]: 0.397 µM
TGI [10]: 20.5 µM
GI50 [11]: 0.386 µM
TGI [11]: > 68.8 µM
GI50 [12]: 2.79 µM
TGI [12]: 16.2 µM
GI50 [13]: 0.551 µM
TGI [13]: 14.8 µM
GI50 [14]: 0.169 µM
TGI [14]: > 100 µM
GI50 [15]: 0.54 µM
TGI [15]: > 70.3 µM
GI50 [16]: 0.219 µM
TGI [16]: 5.3 µM
GI50 [17]: 0.432 µM
TGI [17]: 34.9 µM
GI50 [18]: 0.334 µM
TGI [18]: 10.4 µM
GI50 [19]: 0.434 µM
TGI [19]: 17.7 µM
GI50 [20]: 0.455 µM
TGI [20]: 10.2 µM
GI50 [21]: 0.369 µM
TGI [21]: > 54 µM
GI50 [22]: 0.734 µM
TGI [22]: 97.2 µM
GI50 [23]: 0.475 µM
TGI [23]: 16.7 µM
GI50 [24]: 1.01 µM
TGI [24]: 31.8 µM
GI50 [25]: 0.351 µM
TGI [25]: 3.63 µM
GI50 [26]: 0.356 µM
TGI [26]: 13.5 µM
GI50 [27]: 0.574 µM
TGI [27]: > 63.1 µM
GI50 [28]: 0.355 µM
TGI [28]: > 34 µM
GI50 [29]: 0.409 µM
TGI [29]: 24.5 µM
GI50 [30]: 0.536 µM
TGI [30]: 19.6 µM
GI50 [31]: 1.16 µM
TGI [31]: 30.6 µM
GI50 [32]: 2.95 µM
TGI [32]: 25.1 µM
GI50 [33]: 0.508 µM
TGI [33]: 20.1 µM
GI50 [34]: 0.443 µM
TGI [34]: > 100 µM
GI50 [35]: 0.355 µM
TGI [35]: 42.4 µM
GI50 [36]: 0.426 µM
TGI [36]: 7.07 µM
GI50 [37]: 1.95 µM
TGI [37]: 18.3 µM
GI50 [38]: 0.497 µM
TGI [38]: 20.6 µM
GI50 [39]: 0.751 µM
TGI [39]: 23.3 µM
GI50 [40]: 0.83 µM
TGI [40]: 30.7 µM
GI50 [41]: 0.658 µM
TGI [41]: 8.61 µM
GI50 [42]: 0.468 µM
TGI [42]: > 100 µM
GI50 [43]: 2.05 µM
TGI [43]: > 55.3 µM
GI50 [44]: 0.833 µM
TGI [44]: 39.9 µM
GI50 [45]: 0.33 µM
TGI [45]: 19.5 µM
GI50 [46]: 0.788 µM
TGI [46]: 11.7 µM
GI50 [47]: 0.568 µM
TGI [47]: 18.4 µM
GI50 [48]: 0.444 µM
TGI [48]: > 50.9 µM
GI50 [49]: 0.331 µM
TGI [49]: 25.6 µM
GI50 [50]: 0.572 µM
TGI [50]: 19.2 µM
GI50 [51]: 0.309 µM
TGI [51]: 5.65 µM
GI50 [52]: 0.386 µM
TGI [52]: 20.5 µM
GI50 [53]: 0.239 µM
TGI [53]: > 37.2 µM
GI50 [54]: 0.381 µM
TGI [54]: 7.1 µM
GI50 [55]: 0.185 µM
TGI [55]: 26.3 µM
GI50 [56]: 2.01 µM
TGI [56]: 16.9 µM
GI50 [57]: 0.243 µM
TGI [57]: 17.3 µM
GI50 [58]: 0.853 µM
TGI [58]: 21.3 µM

O=C(NNc1nc2cc(F)ccc2n2c(CO)ccc12)c1cnccn1
GI50 [1]: 0.387 µM
TGI [1]: 11.9 µM
GI50 [2]: 0.704 µM
TGI [2]: > 100 µM
GI50 [3]: 0.448 µM
TGI [3]: > 100 µM
GI50 [4]: 1.36 µM
TGI [4]: > 100 µM
GI50 [5]: 0.344 µM
TGI [5]: > 32.8 µM
GI50 [6]: 0.435 µM
TGI [6]: > 38 µM
GI50 [7]: 0.243 µM
TGI [7]: > 24.9 µM
GI50 [8]: 0.557 µM
TGI [8]: 10 µM
GI50 [9]: 0.471 µM
TGI [9]: > 55.8 µM
GI50 [10]: 0.0689 µM
TGI [10]: 5.05 µM
GI50 [11]: 0.0691 µM
TGI [11]: > 45.7 µM
GI50 [12]: 0.721 µM
TGI [12]: > 57.6 µM
GI50 [13]: 0.295 µM
TGI [13]: > 100 µM
GI50 [14]: 0.395 µM
TGI [14]: > 60.4 µM
GI50 [15]: 0.509 µM
TGI [15]: 29.5 µM
GI50 [16]: 0.317 µM
TGI [16]: 4.08 µM
GI50 [17]: 0.633 µM
TGI [17]: > 100 µM
GI50 [18]: 1.01 µM
TGI [18]: 8.07 µM
GI50 [19]: 0.281 µM
TGI [19]: > 100 µM
GI50 [20]: 0.245 µM
TGI [20]: 11 µM
GI50 [21]: 0.78 µM
TGI [21]: > 100 µM
GI50 [22]: 0.712 µM
TGI [22]: > 100 µM
GI50 [23]: 0.552 µM
TGI [23]: > 100 µM
GI50 [24]: 0.367 µM
TGI [24]: 10.8 µM
GI50 [25]: 0.292 µM
TGI [25]: 4.05 µM
GI50 [26]: 0.368 µM
TGI [26]: > 38.5 µM
GI50 [27]: 0.408 µM
TGI [27]: > 57.2 µM
GI50 [28]: 0.343 µM
TGI [28]: > 31.9 µM
GI50 [29]: 0.541 µM
TGI [29]: 36 µM
GI50 [30]: 0.432 µM
TGI [30]: > 100 µM
GI50 [31]: 0.895 µM
TGI [31]: > 100 µM
GI50 [32]: 1.16 µM
TGI [32]: 4.99 µM
GI50 [33]: 0.543 µM
TGI [33]: 18.2 µM
GI50 [34]: 0.508 µM
TGI [34]: > 100 µM
GI50 [35]: 0.534 µM
TGI [35]: > 83.1 µM
GI50 [36]: 0.489 µM
TGI [36]: > 100 µM
GI50 [37]: 4.31 µM
TGI [37]: > 100 µM
GI50 [38]: 0.111 µM
TGI [38]: 12.2 µM
GI50 [39]: 0.78 µM
TGI [39]: > 100 µM
GI50 [40]: 0.665 µM
TGI [40]: > 100 µM
GI50 [41]: 0.667 µM
GI50 [42]: 0.649 µM
TGI [42]: > 100 µM
GI50 [43]: 0.837 µM
TGI [43]: > 52.6 µM
GI50 [44]: 0.504 µM
TGI [44]: > 100 µM
GI50 [45]: 0.345 µM
TGI [45]: > 42.9 µM
GI50 [46]: 1.07 µM
TGI [46]: 20.2 µM
GI50 [47]: 1.16 µM
TGI [47]: 6.05 µM
GI50 [48]: 0.595 µM
TGI [48]: > 100 µM
GI50 [49]: 0.407 µM
TGI [49]: > 100 µM
GI50 [50]: 0.568 µM
TGI [50]: > 100 µM
GI50 [51]: 0.986 µM
TGI [51]: 27.3 µM
GI50 [52]: 1.4 µM
TGI [52]: 63.8 µM
GI50 [53]: 0.39 µM
TGI [53]: > 100 µM
GI50 [54]: 0.481 µM
TGI [54]: 11.2 µM
GI50 [56]: 1.9 µM
TGI [56]: 56.4 µM
GI50 [57]: 0.516 µM
TGI [57]: > 100 µM
GI50 [58]: 0.481 µM
TGI [58]: 3.61 µM
